Source: BindingDB's records for doi:10.1016/0960-894X(96)00067-4 (1996)

Assay: Binding affinity towards sigma receptor in guinea pig brain membrane was determined by using [3H]DTG as the radioligand

OC12C3C4CC5C6C4C1C6C(C53)N2Cc1cccc(Br)c1 (stereo unspecified) [11-(3-bromobenzyl)-11-azahexacyclo[5.4.1.02,6.03,10.04,8.09,12]dodecan-1-ol]
Ki: 0.109 µM
